Laboratory results from patent US20250101042A1, “KRAS G12D MODULATING COMPOUNDS” (Gilead Sciences, Inc., priority 2023, published 2025).

Experiments:
GDP-loaded KRAS G12D = GDP-loaded KRAS G12D (Homo sapiens, UniProt P01116, G12D); test: KRAS G12D (GDP) Biochemical Assay (TR-FRET probe displacement); type: binding; conditions: 0.5 nM enzyme, 2 hours at room temperature
Experimental: Example A. KRAS G12D (GDP) Biochemical Assay
Compounds were tested for binding to GDP-loaded KRAS G12D in a 384-well assay format using a TR-FRET probe displacement assay in buffer consisting of 50 mM Hepes (pH 7.4), 150 mM NaCl, 5 mM MgCl2 and 0.005% Tween-20. […] Compounds were serially diluted (1:3) in DMSO. The LabCyte ECHO Acoustic dispenser system was used to pre-spot the assay plates (384-well Non-Binding Surface plates, Corning, Catalog #3824) with 50 nL of compound. The compounds were pre-incubated with 5 μL of 2× final enzyme concentration for 30 minutes before adding 5 μL of 2× final concentration of Eu-streptavidin and TR-FRET probe (10 μL final reaction volume). The plates were incubated at room temperature for 2 hours before measuring TR-FRET ratio on the Envision plate reader. IC50 values were defined as the compound concentration that causes a 50% decrease in TR-FRET ratio and were calculated using a sigmoidal dose-response model to generate curve fits.

GP2D (KRAS G12D) cells = test: 2D Cell Viability Assay (CellTiter-Glo); type: cell-based; conditions: GP2d, 96 h, 4 days, CellTiter-Glo luminescence
Experimental: Example B. 2D Cell Viability Assay
Compounds were tested in a 384-well format for their ability to inhibit the viability of GP2D (KRAS G12D) cells in 2D assays. Compounds were serially diluted (1:3) in DMSO. The LabCyte ECHO Acoustic dispenser system was used to pre-spot assay plates with 200 nL of test molecule per well. 1000 cells/well (40 μL volume per well) in RPMI medium with 10% FBS, and Penicillin-Streptomycin-Glutamine were plated in pre-spotted 384-well plates (Greiner, Catalog #781076) on the BioTEK EL406 liquid dispenser with a 5 μL dispensing cassette (BioTek 7170011). The plates were incubated at 37° C., 5% CO2 for 4 days before addition of CellTiter-Glo (CTG) reagent and measurement of luminescence signal. EC50 values were defined as the compound concentration that causes a 50% decrease in luminescence signal and were calculated using a sigmoidal dose-response model to generate curve fits.

Chain of GDP-loaded KRAS G12D (P01116 1-188 isoform P01116-2 G12D): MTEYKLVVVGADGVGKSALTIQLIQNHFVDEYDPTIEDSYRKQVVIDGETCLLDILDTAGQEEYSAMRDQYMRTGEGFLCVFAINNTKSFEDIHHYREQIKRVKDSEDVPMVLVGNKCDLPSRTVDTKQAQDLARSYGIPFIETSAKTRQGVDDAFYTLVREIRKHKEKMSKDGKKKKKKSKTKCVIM

Row | SMILES | IC50 (GDP-loaded KRAS G12D) [nM] | EC50 (GP2D (KRAS G12D) cells) [nM]
1 | Cc1cc(N)nc(-c2nc3c4c(nc(OC[C@@]56CCCN5C[C@H](F)C6)nc4c2F)N2C[C@H]4CC[C@H](N4)[C@H]2CCC3)c1C(F)(F)F [Example 7, 6-((6aR,7S,10R)-1-fluoro-13-(((2R,7aS)-2-fluorotetrahydro-1H-pyrrolizin-7a(5H)-yl)methoxy)-5,6,6a,7,8,9,10,11-octahydro-4H-3,11a,12,14,15-pentaaza-7,10-methanocyclohepta[4,5]cycloocta[1,2,3-de]naphthalen-2-yl)-4-methyl-5-(trifluoromethyl)pyridin-2-amine] | 0.7 | 11
2 | Cc1cc(N)[n+]([O-])c(-c2nc3c4c(nc(OC[C@@]56CCCN5C[C@H](F)C6)nc4c2F)N2C[C@H]4CC[C@H](N4)[C@H]2CCC3)c1C(F)(F)F [Example 8, 6-amino-2-((6aR,7S,10R)-1-fluoro-13-(((2R,7aS)-2-fluorotetrahydro-1H-pyrrolizin-7a(5H)-yl)methoxy)-5,6,6a,7,8,9,10,11-octahydro-4H-3,11a,12,14,15-pentaaza-7,10-methanocyclohepta[4,5]cycloocta[1,2,3-de]naphthalen-2-yl)-4-methyl-3-(trifluoromethyl)pyridine 1-oxide] | > 100 | > 100
3 | Cc1cc(N)nc(-c2cc3c4c(nc(OC[C@@]56CCCN5C[C@H](F)C6)nc4c2F)N2C[C@H]4CC[C@H](N4)[C@H]2CC3)c1C(F)(F)F [Example 9, 6-((1S,4R,14aR)-10-fluoro-8-(((2R,7aS)-2-fluorotetrahydro-1H-pyrrolizin-7a(5H)-yl)methoxy)-1,2,3,4,5,13,14,14a-octahydro-1,4-epiminoazepino[1′,2′:1,7]azepino[2,3,4-de]quinazolin-11-yl)-4-methyl-5-(trifluoromethyl)pyridin-2-amine] | 2.5 | 37
4 | Cc1cc(N)nc(-c2c(C)c3c4c(nc(OC[C@@]56CCCN5C[C@H](F)C6)nc4c2F)N2C[C@H]4CC[C@H](N4)[C@H]2CC3)c1C(F)(F)F [Example 10, 6-((1S,4R,14aR)-10-fluoro-8-(((2R,7aS)-2-fluorotetrahydro-1H-pyrrolizin-7a(5H)-yl)methoxy)-12-methyl-1,2,3,4,5,13,14,14a-octahydro-1,4-epiminoazepino[1′,2′:1,7]azepino[2,3,4-de]quinazolin-11-yl)-4-methyl-5-(trifluoromethyl)pyridin-2-amine] | 0.29 | 10
5 | Cc1c(F)c(N)nc(-c2nc3c4c(nc(OC[C@@]56CCCN5C[C@H](F)C6)nc4c2F)N2C[C@H]4CC[C@H](N4)[C@H]2CCC3)c1C(F)(F)F [Example 11, 3-fluoro-6-((6aR,7S,10R)-1-fluoro-13-(((2R,7aS)-2-fluorotetrahydro-1H-pyrrolizin-7a(5H)-yl)methoxy)-5,6,6a,7,8,9,10,11-octahydro-4H-3,11a,12,14,15-pentaaza-7,10-methanocyclohepta[4,5]cycloocta[1,2,3-de]naphthalen-2-yl)-4-methyl-5-(trifluoromethyl)pyridin-2-amine] | 12 | 34
6 | N#Cc1c(N)sc2cccc(-c3nc4c5c(nc(OC[C@@]67CCCN6C[C@H](F)C7)nc5c3F)N3C[C@H]5CC[C@H](N5)[C@H]3CCC4)c12 [Example 12, 2-amino-4-((6aR,7S,10R)-1-fluoro-13-(((2R,7aS)-2-fluorotetrahydro-1H-pyrrolizin-7a(5H)-yl)methoxy)-5,6,6a,7,8,9,10,11-octahydro-4H-3,11a,12,14,15-pentaaza-7,10-methanocyclohepta[4,5]cycloocta[1,2,3-de]naphthalen-2-yl)benzo[b]thiophene-3-carbonitrile] | 0.17 | 3.5
7 | C[C@H]1Cc2nc(-c3cccc4sc(N)c(C#N)c34)c(F)c3nc(OC[C@@]45CCCN4C[C@H](F)C5)nc(c23)N2C[C@H]3CC[C@H](N3)[C@H]12 [Example 13, 2-amino-4-((5S,5aS,6S,9R)-1-fluoro-12-(((2R,7aS)-2-fluorotetrahydro-1H-pyrrolizin-7a(5H)-yl)methoxy)-5-methyl-4,5,5a,6,7,8,9,10-octahydro-3,10a,11,13,14-pentaaza-6,9-methanonaphtho[1,8-ab]heptalen-2-yl)benzo[b]thiophene-3-carbonitrile] | 0.45 | 2
8 | Cc1cc(N)nc(-c2c(Br)c3c4c(nc(OC[C@@]56CCCN5C[C@H](F)C6)nc4c2F)N2C[C@H]4CC[C@H](N4)[C@H]2CC3)c1C(F)(F)F [Example 14, 6-((1S,4R,14aR)-12-bromo-10-fluoro-8-(((2R,7aS)-2-fluorotetrahydro-1H-pyrrolizin-7a(5H)-yl)methoxy)-1,2,3,4,5,13,14,14a-octahydro-1,4-epiminoazepino[1′,2′:1,7]azepino[2,3,4-de]quinazolin-11-yl)-4-methyl-5-(trifluoromethyl)pyridin-2-amine] | 0.24 | 2.5
9 | C=Cc1c(-c2nc(N)cc(C)c2C(F)(F)F)c(F)c2nc(OC[C@@]34CCCN3C[C@H](F)C4)nc3c2c1CC[C@@H]1[C@@H]2CC[C@H](CN31)N2 [Example 15, 6-((1S,4R,14aR)-10-fluoro-8-(((2R,7aS)-2-fluorotetrahydro-1H-pyrrolizin-7a(5H)-yl)methoxy)-12-vinyl-1,2,3,4,5,13,14,14a-octahydro-1,4-epiminoazepino[1′,2′:1,7]azepino[2,3,4-de]quinazolin-11-yl)-4-methyl-5-(trifluoromethyl)pyridin-2-amine] | 0.43 | 24
10 | CCc1c(-c2nc(N)cc(C)c2C(F)(F)F)c(F)c2nc(OC[C@@]34CCCN3C[C@H](F)C4)nc3c2c1CC[C@@H]1[C@@H]2CC[C@H](CN31)N2 [Example 16, 6-((1S,4R,14aR)-12-ethyl-10-fluoro-8-(((2R,7aS)-2-fluorotetrahydro-1H-pyrrolizin-7a(5H)-yl)methoxy)-1,2,3,4,5,13,14,14a-octahydro-1,4-epiminoazepino[1′,2′:1,7]azepino[2,3,4-de]quinazolin-11-yl)-4-methyl-5-(trifluoromethyl)pyridin-2-amine] | 0.82 | 20
11 | Cc1cc(N)nc(-c2nc3c4c(nc(OC[C@@]56CCCN5C[C@H](F)C6)nc4c2F)N2C[C@H]4CC[C@H](N4)[C@@H]2[C@@H](C)C3)c1C(F)(F)F [Example 17, 6-((5S,5aS,6S,9R)-1-fluoro-12-(((2R,7aS)-2-fluorotetrahydro-1H-pyrrolizin-7a(5H)-yl)methoxy)-5-methyl-4,5,5a,6,7,8,9,10-octahydro-3,10a,11,13,14-pentaaza-6,9-methanonaphtho[1,8-ab]heptalen-2-yl)-4-methyl-5-(trifluoromethyl)pyridin-2-amine] | 6.1 | 25
12 | Cc1cc(N)nc(-c2nc3c4c(nc(OC[C@@]56CCCN5C[C@H](F)C6)nc4c2F)N2C[C@H]4CC[C@H](N4)[C@H]2C[C@H](C)C3)c1C(F)(F)F [Example 18, 6-((5S,6aR,7S,10R)-1-fluoro-13-(((2R,7aS)-2-fluorotetrahydro-1H-pyrrolizin-7a(5H)-yl)methoxy)-5-methyl-5,6,6a,7,8,9,10,11-octahydro-4H-3,11a,12,14,15-pentaaza-7,10-methanocyclohepta[4,5]cycloocta[1,2,3-de]naphthalen-2-yl)-4-methyl-5-(trifluoromethyl)pyridin-2-amine] | 83 | > 100
13 | Cc1cc(N)nc(-c2c(F)c3c4c(nc(OC[C@@]56CCCN5C[C@H](F)C6)nc4c2F)N2C[C@H]4CC[C@H](N4)[C@H]2CC3)c1C(F)(F)F [Example 19, 6-((1S,4R,14aR)-10,12-difluoro-8-(((2R,7aS)-2-fluorotetrahydro-1H-pyrrolizin-7a(5H)-yl)methoxy)-1,2,3,4,5,13,14,14a-octahydro-1,4-epiminoazepino[1′,2′:1,7]azepino[2,3,4-de]quinazolin-11-yl)-4-methyl-5-(trifluoromethyl)pyridin-2-amine] | 0.18 | 3.3
14 | Nc1nc2c(F)ccc(-c3nc4c5c(nc(OC[C@@]67CCCN6C[C@H](F)C7)nc5c3F)N3C[C@H]5CC[C@H](N5)[C@H]3CC4)c2s1 [Example 20, 4-fluoro-7-((5aR,6S,9R)-1-fluoro-12-(((2R,7aS)-2-fluorotetrahydro-1H-pyrrolizin-7a(5H)-yl)methoxy)-4,5,5a,6,7,8,9,10-octahydro-3,10a,11,13,14-pentaaza-6,9-methanonaphtho[1,8-ab]heptalen-2-yl)benzo[d]thiazol-2-amine] | 8.2 | > 100
